Source: patent US20240116990A1, “Compositions and Methods of Treatment Using CRRL 191” (Mayo Foundation for Medical Education and Research, priority 2022, published 2024)
Bridge positions count the residues as written; N and C are the ends.

Columns and labels:
[1] = target: T1, human GC-A (Homo sapiens, UniProt P16066); experiment: cGMP production over 6 hours in HEK/GCA cells; type: cell-based; settings: 10^−8 M, FIG. 2
T1 construct: host or cells: HEK293
T1 sequence (P16066 33-1061): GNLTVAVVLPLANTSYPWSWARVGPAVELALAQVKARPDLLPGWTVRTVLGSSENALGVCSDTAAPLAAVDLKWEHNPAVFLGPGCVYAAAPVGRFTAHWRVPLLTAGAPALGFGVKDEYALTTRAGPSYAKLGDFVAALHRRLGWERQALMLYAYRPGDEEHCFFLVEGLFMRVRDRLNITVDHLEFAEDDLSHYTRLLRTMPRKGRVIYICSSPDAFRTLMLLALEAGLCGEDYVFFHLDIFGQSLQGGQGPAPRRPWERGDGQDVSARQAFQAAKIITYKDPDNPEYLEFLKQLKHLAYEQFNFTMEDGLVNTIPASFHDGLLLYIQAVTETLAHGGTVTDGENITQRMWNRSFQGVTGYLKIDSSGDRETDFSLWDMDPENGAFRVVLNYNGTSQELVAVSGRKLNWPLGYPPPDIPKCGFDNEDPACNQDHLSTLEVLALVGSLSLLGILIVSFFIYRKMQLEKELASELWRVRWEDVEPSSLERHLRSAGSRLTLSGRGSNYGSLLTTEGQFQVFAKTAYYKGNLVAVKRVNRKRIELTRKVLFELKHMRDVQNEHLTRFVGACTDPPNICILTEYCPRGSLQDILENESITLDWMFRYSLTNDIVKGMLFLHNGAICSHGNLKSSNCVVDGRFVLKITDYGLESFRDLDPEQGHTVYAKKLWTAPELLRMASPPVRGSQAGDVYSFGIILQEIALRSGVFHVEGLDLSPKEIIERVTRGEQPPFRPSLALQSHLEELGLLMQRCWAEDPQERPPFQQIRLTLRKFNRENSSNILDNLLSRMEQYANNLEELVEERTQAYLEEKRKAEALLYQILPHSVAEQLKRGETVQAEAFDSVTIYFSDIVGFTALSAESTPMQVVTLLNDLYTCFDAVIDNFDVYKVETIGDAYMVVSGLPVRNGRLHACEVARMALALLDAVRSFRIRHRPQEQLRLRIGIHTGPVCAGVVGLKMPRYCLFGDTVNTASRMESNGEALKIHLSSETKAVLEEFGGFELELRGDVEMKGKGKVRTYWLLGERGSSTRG
Protocol: HEK293 cells stably transfected with human GC-A (cDNA clones from Origene, Rockville, MD) using Lipofectamine (Invitrogen, Grand Island, NY), are developed. Receptor overexpression is verified with immunofluorescence and western blotting. GC-A-transfected HEK293 (HEK/GCA) cells are maintained in Dulbecco's modified Eagle's medium (DMEM) supplemented with 10% fetal bovine serum (FBS), 100 U/ml penicillin, 100 U/ml streptomycin and 250 μg/ml G418.
Two in vitro cGMP assays are performed. Briefly, HEK/GCA cells are seeded in 48-well plates and cultured overnight to 80-90% confluency. The treatment buffer used in all experiments comprises Hank's Balanced Salt Solution (HBSS), 0.1% bovine serum albumin (BSA), 2 mM HEPES, and 0.5 mM 3-isobutyl-1-methylxanthine (IBMX, a non-specific phosphodiesterase inhibitor) (Sigma, St. Louis, MO).
After treatment, all cells are washed with phosphate buffered solution (PBS) once and lysed with 0.1M HCl.

[2] = system: Spontaneously Hypertensive Rats (SHR); experiment: Plasma cGMP in spontaneously hypertensive rats; type: in vivo, rat
Protocol: (§1) All rat experiments are conducted following the Animal Welfare Act and the protocol is approved by the Mayo Clinic Institutional Animal Care and Use Committee (IACUC). […] Rats are included only if they are deemed healthy by the Institutional Veterinarian Department. Investigators who conduct the in vivo study are not blinded to treatments, but biochemical analysis is performed by a different investigator who is blinded to treatment.
(§2) On the day of the experiment, SHR rats are anesthetized with inactin (120 mg/kg, intraperitoneal injection, Sigma, St. Louis, MO). Rats are then kept on a heating pad at 38° C. to maintain a normal body temperature for the entire study. Vascular and bladder cannulation procedures are conducted. Briefly, a polyethylene-50 (PE-50) tube catheter is placed into one jugular vein for peptide infusion and another PE-50 tube is placed into the carotid artery for blood pressure (BP) monitoring (Sonometrics, London, Ontario, Canada) and blood sampling. After instrumentation, a 15-minute equilibrium period follows, and a 30-minute pre-infusion period is performed to collect baseline urine samples.
(§3) Four blood samples are collected to determine circulating cGMP levels: at baseline, before the end of drug infusion, at the middle of the washout clearance period, and before the end of the washout clearance period. Any blood loss in the rats is replaced with an equal volume of saline. BP is monitored and recorded every 15 minutes beginning after the initiation of peptide infusion. All collected blood are stored at −80° C. until assayed.
For the biochemical analysis, plasma cGMP levels are measured with a cGMP ELISA kit (Enzo Life Sciences, Farmingdale, NY).

[3] = physchem; settings: water
[4] = system: Human cardiomyocytes (HCM); experiment: Human cardiomyocyte (HCM) cGMP analysis; type: cell-based
Protocol: Human cardiomyocytes (HCM) are purchased from ScienCell (Catalog #6200) and maintained in Cardiac Myocyte Medium (Cat #6101, ScienCell) containing 10% FBS. An in vitro cGMP assay is performed. Briefly, HCM cells are seeded in 6-well plates and cultured overnight to 80-90% confluency. The treatment buffer used in all experiments comprises Hank's Balanced Salt Solution (HBSS), 0.1% BSA, 2 mM HEPES, and 0.5 mM 3-isobutyl-1-methylxanthine (IBMX, a non-specific phosphodiesterase inhibitor) (Sigma, St. Louis, MO). […] For the negative control, HCM are incubated in treatment buffer (vehicle) only. After treatment for 10 minutes, all cells are washed with phosphate buffered solution (PBS) once, lysed with 0.1 M HCl, and sonicated for 10 min.

[5] = system: Spontaneously Hypertensive Rats (SHR); experiment: Blood pressure in spontaneously hypertensive rats during infusion and washout; type: in vivo, rat; settings: 100 pmol/kg and 300 pmol/kg doses
Protocol: as §1, §2, §3

[6] = 100 pmol/kg and 300 pmol/kg doses, FIG. 9B

For “H-RALLTAPRSLRRSSCFGHKIDRINHVSNLGCNSFRYRITAREDKQGWA-OH (disulfide 15-31) [CRRL 191]”, the “GC-A activation / cGMP production up to about 30 minutes” value [1] was “increases in cGMP production at the same rate”, the “GC-A activation / cGMP production after 30 minutes” value ([1]; up to 6 hours) was “continues to increase up to at least 6 hours” and the “activating cGMP in plasma compared to ANP” value [2, 6] was “more potent”. The “duration of plasma cGMP activation after peptide administration compared to ANP” value [2, 6] was “more sustained activation”, the “plasma cGMP levels” value ([2]; iv infusion, FIG. 9A) was “increase” and the solubility [3] was no less than 1000 µg/mL. For the same substance, the “cGMP production compared to MANP or CRRL 101” value ([4]; 10^−9 M to 10^−6 M, FIG. 5) was “great levels of cGMP production than MANP or CRRL 101”, the “cGMP production compared to ANP” value ([4]; 10^−10 M to 10^−6 M, 10 min, FIG. 4) was “greater cGMP production than ANP” and the “lowering systolic blood pressure compared to ANP” value ([5]; iv infusion, FIG. 8A) was “more effective at lowering”. The “lowering diastolic blood pressure compared to ANP” value ([5]; iv infusion, FIG. 8B) was “more effective at lowering”, the “lowering mean arterial blood pressure compared to ANP” value ([5]; iv infusion, FIG. 8C) was “more effective at lowering” and the “duration of blood pressure effect after peptide administration compared to ANP” value ([5]; washout) was “more sustained effect over time”.
